Laboratory results from publication PMC11237774, “On-target, dual aminopeptidase inhibition provides cross-species antimalarial activity” (mBio, 2024).
Read-outs that look alike come from different tables or passages of the source. One block for each compound: values may come before it.

Experiments:
[1] = test system: PfNF54-s16-GFP early (I–III) stage gametocytes; assay: Image-based gametocyte viability assay; assay type: cell-based, P. falciparum; settings: Plasmodium falciparum, 72 h, read-out: IC50 Early-stage Gametocytes (mean ± SD)
Experimental: (§1) Viability assays were performed as described previously ([32], [33]) against PfNF54-s16-GFP early(I–III), late (IV–V), and mature (V) stage gametocytes. Gametocytes were assessed at the appropriate time points following gametogenesis; early stage (day 2), late stage (day 8), and mature stage (day 12). Compounds diluted in 4% DMSO were transferred into 384-well imaging plates; gametocytes prepared as described previously (35) were added, and plates were incubated for 72 h in 5% CO2, 5% O2, and 60% humidity at 37°C. After 72 h incubation, 5 µL of MitoTracker Red CMH2XRos in phosphate buffered saline (PBS) was added per well, and plates were incubated overnight. Image acquisition and analysis were undertaken on the Opera QEHS micro-plate confocal imaging system. An Acapella-based script using the CMH2XRos fluorescent signal and the GFP-designated object quantifying viable stage-dependent parasite morphology identified gametocytes. Gametocyte viability was calculated as a percentage of the positive (5 µM puromycin) and negative (0.4% DMSO) controls. IC50 values were calculated using a 4-parameter log dose, non-linear regression analysis, with sigmoidal dose response (variable slope) curve fit using GraphPad Prism (ver 4.0). No constraints were used in the curve fit. Chloroquine, artesunate, pyronaridine, pyrimethamine, dihydroartemisinin (DHA), and methylene blue were used as control compounds. Experiments were performed as two or three biological replicates in duplicate.

[2] = test system: PfNF54-s16-GFP late (IV–V) stage gametocytes; assay: Image-based gametocyte viability assay; assay type: cell-based, P. falciparum; settings: Plasmodium falciparum; stages IV–V, 72 h; read-out: IC50 Late-stage Gametocytes (mean ± SD)
Experimental: as §1, with “Chloroquine, artesunate, pyronaridine, pyrimethamine, dihydroartemisinin (DHA), and methylene blue were used as control compounds.” left out

[3] = test system: PfNF54-s16-GFP mature (V) stage gametocytes; assay: Image-based gametocyte viability assay; assay type: cell-based, P. falciparum; settings: Plasmodium falciparum, 72 h, read-out: IC50 Mature-stage Gametocytes (mean ± SD)
Experimental: as §1, with “Chloroquine, artesunate, pyronaridine, pyrimethamine, dihydroartemisinin (DHA), and methylene blue were used as control compounds.” left out

[4] = test system: P. falciparum Dd2 parasites; assay: Fractional inhibitory concentration, artemisinin and MMV1557817 interaction; assay type: cell-based
Experimental: Fractional inhibitory concentrations (FIC) were determined as previously described ([44]). […] The FIC for each drug was determined by EC50 of drug in a mixture/EC50 of drug alone, and the sum of FIC was determined by the addition of the two individual FIC values. Synergistic FIC is described as <1, additive = 1 < 2, and antagonism > 2 ([44]).

[5] = test system: MMV1557817-resistant parasites; assay: 72 h killing assay, MMV1557817-resistant parasites versus parental Dd2; assay type: cell-based, P. falciparum
Pf3D7 = assay: Parasite reduction ratio assay; assay type: cell-based, P. falciparum
Experimental: Assays were performed as described previously with some alterations ([37]). […] Specifically, media containing compound was placed in wells every 24 h for up 120 h. […] Parasite growth was measured at day 21 using SYBR green I as described above. Fluorescence was used to determine at what treatment day wells became positive for growth when compared with the well before it; greater than double the fluorescence was determined to be a positive well. […] Experiments were performed in two or three biological replicates in quadruplicate.

[6] = test system: P. falciparum clinical isolates; assay: Ex vivo drug susceptibility assay (schizont maturation) on clinical isolates; assay type: cell-based
Experimental: (§2) Plasmodium isolates were collected from patients attending public health clinics in Timika (Papua, Indonesia), a region endemic for multidrug-resistant strains of P. vivax and P. falciparum ([38][–][40]). Patients with symptomatic malaria presenting to an outpatient facility were recruited into the study if infected with either P. falciparum or P. vivax, with a parasitemia of between 2,000 µL^−1 and 80,000 µL^−1, and the majority (>60%) of asexual parasites at the ring stage of development. Venous blood (5 mL) was collected by venipuncture, and after removal of patient white blood cells using Plasmodipur filters (EuroProxima B.V., The Netherlands), packed infected red blood cells (iRBCs) were used for the ex vivo drug susceptibility assay.
(§3) Drug plates were pre-dosed by diluting the compounds in 50% methanol followed by lyophilization and storage at 4°C. Drug susceptibility of P. vivax and P. falciparum isolates was measured using a protocol modified from the WHO microtest as described previously ([40], [41]). […] A candle jar was used to mature the parasites at 37.0°C for 35–56 h. […] Thick blood films made from each well were stained with 5% Giemsa solution for 30 min and examined microscopically. The number of schizonts per 200 asexual-stage parasites was determined for each drug concentration and normalized to the control well without drug. The dose response data were analyzed using non-linear regression analysis, and the EC50 value was derived using an inhibitory sigmoid Emax model (In Vitro Analysis and Reporting Tool [IVART] [42, 43]).

[7] = test system: P. vivax clinical isolates; assay: as above; assay type: cell-based
Experimental: as §2, §3

[8] = Plasmodium falciparum, ex vivo clinical isolates, n = 15, read-out: P. falciparum median EC50 (range)
[9] = Plasmodium vivax, ex vivo clinical isolates, n = 6, read-out: P. vivax median EC50 (range)
[10] = ex vivo clinical isolates, n = 6, read-out: P. vivax median EC50 (range)

Structure (SMILES): C[C@H]1[C@@H](O)O[C@@H]2O[C@@]3(C)CC[C@H]4[C@H](C)CC[C@@H]1[C@@]24OO3 [DHA, dihydroartemisinin]
- IC50 ([1]; stages I–III): 16 ± 2 nM
- IC50 [2]: 35 ± 12 nM
- IC50 [3]: 103 ± 30 nM

Structure (SMILES): CN(C)c1ccc2nc3ccc(=[N+](C)C)cc-3sc2c1 [Methylene Blue, methylene blue]
- IC50 ([1]; stages I–III): 110 ± 4 nM
- IC50 [2]: 52 ± 2 nM
- IC50 [3]: 63 ± 26 nM

Structure (SMILES): C[C@@H]1CC[C@H]2[C@@H](C)C(=O)O[C@@H]3O[C@@]4(C)CC[C@@H]1[C@]32OO4 [artemisinin, reference compound]
- artemisinin mean FIC ± SEM ([4]; ratio MMV1557817:artemisinin 0:5): 1.00 ± 0.12
- artemisinin mean FIC ± SEM ([4]; ratio MMV1557817:artemisinin 1:4): 0.75 ± 0.07
- artemisinin mean FIC ± SEM ([4]; ratio MMV1557817:artemisinin 2:3): 0.37 ± 0.06
- artemisinin mean FIC ± SEM ([4]; ratio MMV1557817:artemisinin 3:2): 0.16 ± 0.03
- artemisinin mean FIC ± SEM ([4]; ratio MMV1557817:artemisinin 4:1): 0.06 ± 0.01
- change of susceptibility compared with parental Dd2 [5]: marginally but significantly sensitized

Structure (SMILES): CCN(CC)CCCC(C)Nc1ccnc2cc(Cl)ccc12 (stereo not drawn) [chloroquine]
- 99.9% PCT (Pf3D7; Pf3D7, 10× EC50): 53 h
- Lag phase (Pf3D7; Pf3D7, 10× EC50): 0 h
- Log (PRR) (Pf3D7; Pf3D7, 10× EC50, over one cycle): 3.9 ± 0.2
- EC50 ([6]; Plasmodium falciparum, read-out: P. falciparum median EC50 (range), ex vivo clinical isolates, n = 15): 65 nM
- EC50 ([6]; read-out: P. falciparum median EC50 (range), ex vivo clinical isolates, n = 15, listed as CQ): 64.8 nM
- EC50 ([7]; Plasmodium vivax, read-out: P. vivax median EC50 (range), ex vivo clinical isolates, n = 6): 36 nM
- EC50 ([7]; read-out: P. vivax median EC50 (range), ex vivo clinical isolates, n = 6, listed as CQ): 36.4 nM
- IC50 [1]: 157 ± 3.5 nM

- EC50 [6, 8]: 10 nM
- EC50 [7, 9]: 11.2 nM
- EC50 [7, 10]: 11 nM
Structure (SMILES): OC(c1cc(C(F)(F)F)nc2c(C(F)(F)F)cccc12)C1CCCCN1 (stereo not drawn) [mefloquine]

- EC50 [6, 8]: 60.8 nM
- EC50 ([6]; ex vivo clinical isolates, n = 15, read-out: P. falciparum median EC50 (range)): 61 nM
- EC50 [7, 9]: 46.6 nM
- EC50 [7, 10]: 47 nM
Structure (SMILES): Clc1ccc2c(N3CCN(CCCN4CCN(c5ccnc6cc(Cl)ccc56)CC4)CC3)ccnc2c1 [piperaquine]

Structure (SMILES): COc1ccc(C[C@H](N)C(=O)N[C@H]2[C@@H](O)[C@H](n3cnc4c(N(C)C)ncnc43)O[C@@H]2CO)cc1 [puromycin]
- IC50 ([1]; stages I–III): 163 ± 18 nM
- IC50 [2]: 94 ± 5 nM
- IC50 [3]: 73 ± 24 nM

Structure (SMILES): COc1ccc2nc3cc(Cl)ccc3c(Nc3cc(CN4CCCC4)c(O)c(CN4CCCC4)c3)c2n1 [pyronaridine]
- IC50 ([1]; stages I–III): 67 ± 7 nM
- IC50 [2]: 2280 ± 679 nM
- IC50 [3]: 1250 ± 120 nM
